From US12520844B2 (Bayer Aktiengesellschaft, priority 2020, dated 2026)

Assay: Measurement of Log P values by HPLC on reversed phase columns (EEC directive 79/831 Annex V.A8)
Assay type: physicochemical
Experimental: Measurement of Log P values as provided herein was performed according to EEC directive 79/831 Annex V.A8 by HPLC (High Performance Liquid Chromatography) on reversed phase columns with the following methods: • ^[a] Log P value is determined by measurement of LC-UV, in an acidic range, with 0.1% formic acid in water and acetonitrile as eluent (linear gradient from 10% acetonitrile to 95% acetonitrile). • ^[b] Log P value is determined by measurement of LC-UV, in a neutral range, with 0.001 molar ammonium acetate solution in water and acetonitrile as eluent (linear gradient from 10% acetonitrile to 95% acetonitrile). • ^[c] Log P value is determined by measurement of LC-UV, in an acidic range, with 0.1% phosphoric acid and acetonitrile as eluent (linear gradient from 10% acetonitrile to 95% acetonitrile).
If more than one Log P value is available within the same method, all the values are given and separated by “+”.
Calibration was done with straight-chain alkan2-ones (with 3 to 16 carbon atoms) with known Log P values (measurement of Log P values using retention times with linear interpolation between successive alkanones). Lambda-max-values were determined using UV-spectra from 200 nm to 400 nm and the peak values of the chromatographic signals

| Structure (SMILES) | LogP | chromatographic logP |
| --- | --- | --- |
| Cc1ncc(Oc2cccc(C3CC3)c2F)c(C(=O)NC2CCS(=O)(=O)c3ccccc32)n1 (centres unmarked) [Compound I-057] | 2.78^[a] | – |
| Cc1ccc(C(F)(F)CNC(=O)c2nc(C3CC3)nnc2Oc2cccc(C3CC3)c2F)c(C)c1 [Compound I-037] | 4.81^[a] | – |
| CCOC(=O)c1nc(C2CC2)nnc1Oc1cccc(Br)c1F [Compound 1-07] | 3.93^[a] | – |
| Cc1ncc(Oc2cccc(C3CC3)c2F)c(C(=O)NC2CCC(C)c3ccccc32)n1 (mixture of isomers) [Compound I-065] | 4.40^[a] | – |
| COCc1cccc(Oc2cnc(C)nc2C(=O)NCC(F)(F)c2ccc(C)cc2C)c1 [Compound I-072] | 3.67^[a] | – |
| COc1ccc2c(c1)C(NC(=O)c1nc(C)ncc1Oc1cccc(C3CC3)c1F)C(OC)CC2 (centres unmarked) [Compound I-116] | 3.99^[a] | – |
| Cc1nnc(Oc2cccc(C(F)(F)F)c2)c(C(=O)NCC(F)(F)c2ccc(Br)cc2Cl)n1 [Compound I-005, N-[2-(4-bromo-2-chlorophenyl)-2,2-difluoroethyl]-3-methyl-6-[3-(trifluoromethyl)phenoxy]-1,2,4-triazine-5-carboxamide] | – | 4.26 |
| Cc1ncc(Oc2cccc(C3CC3)c2F)c(C(=O)NCCc2ccc(OC(C)C)nc2)n1 [Compound I-099] | 3.44^[a] | – |
| Cc1ccc(C(F)(F)CNC(=O)c2nc(C)ncc2Oc2ccccc2)c(C)c1 [Compound I-058] | 3.71^[a] | – |
| COc1cccc(Oc2nnc(C3CC3)nc2C(=O)NCC(F)(F)c2ccc(C)cc2C)c1 [Compound I-082] | 4.19^[a] | – |
| Cc1ncc(Oc2cccc(C3CC3)c2F)c(C(=O)NCCc2ccc3c(c2)CCO3)n1 [Compound I-087] | 3.43^[a] | – |
| Cc1ccc(C(F)(F)CNC(=O)c2nc(C3CC3)nnc2Oc2cccc(C(F)(F)F)c2)cc1C [Compound I-024] | 4.66^[a] | – |
| Cc1ccc(C(F)(F)CNC(=O)c2nc(C)ncc2Oc2cnc3c(c2)CCC3)c(C)c1 [Compound I-118] | 2.78^[a] | – |
| Cc1ncc(Oc2cccc(C3CC3)c2F)c(C(=O)NC2CC23CCc2cc(Br)ccc23)n1 (mixture of isomers) [Compound I-091] | 4.73^[a] | – |
| Cc1ccc(C(F)=CNC(=O)c2nc(C3CC3)nnc2Oc2cccc(Br)c2)c(C)c1 [Compound I-132] | 4.97^[a] | – |
| Cc1ncc(Oc2cccc(C3CC3)c2F)c(C(=O)NCCc2ncc(Cl)cn2)n1 [Compound I-016] | 2.72^[a] | – |
| Cc1ccc(C(F)(F)CNC(=O)c2nc(C)ncc2Oc2ccc3c(c2)CCO3)c(C)c1 [Compound I-128] | 3.59^[a] | – |
| Cc1ccc(C(F)(F)CNC(=O)c2nc(C)ncc2Br)c(C)c1 [Compound 3-04, 5-bromo-N-[2-(2,4-dimethylphenyl)-2,2-difluoroethyl]-2-methylpyrimidine-4-carboxamide] | – | 3.25 |
| Cc1nnc(Oc2cccc(C(F)(F)F)c2)c(C(=O)NCC(F)(F)c2ccc(Cl)cc2Cl)n1 [Compound I-007] | 4.20^[a] | – |
| Cc1ncc(Oc2cccc(C3CC3)c2F)c(C(=O)NC2CCCc3cc(Br)ccc32)n1 (centres unmarked) [Compound I-069] | 4.71^[a] | – |
| Cc1ncc(Oc2cccc(C3CC3)c2F)c(C(=O)NC2CCSc3ccc(F)cc32)n1 (racemic) [Compound I-125] | 3.98^[a] | – |
| Cc1ncc(Oc2cccc(C3CC3)c2F)c(C(=O)N(Cc2ccccc2)OCC(C)C)n1 [Compound I-088] | 4.72^[a] | – |
| Cc1ccc(C(F)(F)CNC(=O)c2nc(C)ncc2Oc2cccc(Br)c2)c(C)c1 [Compound I-085] | 4.28^[a] | – |
| Cc1ccc(/C(F)=C/NC(=O)c2nc(C3CC3)nnc2Oc2cccc(C3CC3)c2F)c(C)c1 [Compound I-112] | 5.20^[a] | – |
| Cc1ccc(C(F)(F)CNC(=O)c2nc(C)ncc2Oc2cccc(C3CC3)c2)c(C)c1 [Compound I-015, 5-(3-cyclopropylphenoxy)-N-[2-(2,4-dimethylphenyl)-2,2-difluoroethyl]-2-methylpyrimidine-4-carboxamide] | – | 4.38 |

| Structure (SMILES) | LogP | chromatographic logP |
| --- | --- | --- |
| Cc1ccc(C(F)(F)CNC(=O)c2nc(C3CC3)nnc2Oc2cccc(C)c2F)c(C)c1 [Compound I-050] | 4.47^[a] | – |
| Cc1ncc(Oc2cccc(C3CC3)c2F)c(C(=O)NCC(F)(F)c2cc(Cl)sc2Cl)n1 [Compound I-070] | 4.69^[a] | – |
| Cc1ccc2c(c1)C(NC(=O)c1nc(C)ncc1Oc1cccc(C3CC3)c1F)CC(C)(C)O2 (centres unmarked) [Compound I-055] | 4.42^[a] | – |
| Cc1ccc(C(F)(F)CNC(=O)c2nc(C)ncc2Oc2ccc(F)c(Cl)c2)c(C)c1 [Compound I-129] | 4.20^[a] | – |
| COc1ncc(Oc2cccc(C(F)(F)F)c2)c(C(=O)O)n1 [Compound 1-04] | 1.96^[a] | – |
| Cc1ccc(C(F)(F)CNC(=O)c2nc(C)ncc2Oc2cc(F)c(F)cc2F)c(C)c1 [Compound I-026] | 4.02^[a] | – |
| Cc1nnc(Oc2cccc(C3CC3)c2)c(C(=O)NCC(F)(F)c2ccc(C)c(C)c2)n1 [Compound I-031] | 4.19^[a] | – |
| Cc1ncc(Oc2cccc(C3CC3)c2F)c(C(=O)NCCOc2ccc(Cl)cc2)n1 [Compound I-054] | 3.93^[a] | – |
| Cc1ccc(C(F)(F)CNC(=O)c2nc(C)ncc2Oc2cccc(OC(F)(F)F)c2)c(C)c1 [Compound I-094] | 4.50^[a] | – |
| CC(=O)c1cccc(Oc2cnc(C)nc2C(=O)NCC(F)(F)c2ccc(C)cc2C)c1 [Compound I-022] | 3.40^[a] | – |
| CSc1ncc(Br)c(C(=O)NCC(F)(F)c2ccc(C)cc2C)n1 [Compound 3-03] | 4.05^[a] | – |
| Cc1ncc(Oc2cccc(C3CC3)c2F)c(C(=O)NC2CC(C)(C)Oc3cc(Cl)c(F)cc32)n1 (centres unmarked) [Compound I-080] | 4.87^[a] | – |
| Cc1nnc(Oc2cccc(C(F)(F)F)c2)c(C(=O)NC(C)c2cccc(C(F)(F)F)c2)n1 (centres unmarked) [Compound I-119] | 3.77^[a] | – |
| Cc1ncc(Oc2cccc(C3CC3)c2F)c(C(=O)NC(C)c2ccc(Cl)s2)n1 (centres unmarked) [Compound I-076] | 4.09^[a] | – |
| CCOc1cccc(Oc2cnc(C)nc2C(=O)NCC(F)(F)c2ccc(C)cc2C)c1 [Compound I-047] | 4.13^[a] | – |
| Cc1ccc(C(F)(F)CNC(=O)c2nc(C)ncc2Oc2cccc(C#N)c2)c(C)c1 [Compound I-079] | 3.53^[a] | – |
| Cc1nnc(Oc2cccc(C(F)(F)F)c2)c(C(=O)NCC2(c3ccc(Cl)cc3)COC2)n1 [Compound I-110] | 3.35^[a] | – |
| COc1cccc(Oc2cnc(C)nc2C(=O)NCC(F)(F)c2ccc(C)cc2C)c1F [Compound I-084] | 3.71^[a] | – |
| Cc1ccc(C(F)(F)CNC(=O)c2nc(C3CC3)nnc2Oc2cccc(Cl)c2F)c(C)c1 [Compound I-131] | 4.62^[a] | – |
| Cc1ncc(Oc2cccc(C3CC3)c2F)c(C(=O)NCCc2ccc3c(c2)OCO3)n1 [Compound I-124] | 3.34^[a] | – |
| Cc1ccc(C(F)=CNC(=O)c2nc(C3CC3)nnc2Oc2cccc(Br)c2F)c(C)c1 [Compound I-048] | 5.04^[a] | – |
| CCC(=O)N(CCc1ccccc1)C(=O)c1nc(C)ncc1Oc1cccc(C2CC2)c1F [Compound I-066] | 4.52^[a] | – |
| Cc1ccc(C(F)=CNC(=O)c2nc(C3CC3)nnc2Oc2cccc(Br)c2F)c(C)c1 [Compound I-027] | 5.36^[a] | – |
| Cc1cccc(Oc2cnc(C)nc2C(=O)NCC(F)(F)c2ccc(C)cc2C)c1 [Compound I-033] | 4.06^[a] | – |
| Cc1ccc(/C(F)=C\NC(=O)c2nc(C3CC3)nnc2Oc2cccc(Cl)c2F)c(C)c1 [Compound I-109] | 5.00^[a] | – |
